In ChEMBL document CHEMBL1201862, “PubChem BioAssay data set” (2004):
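Method: 48-hour compound exposure of cells in 96-well plates, five concentrations, linear interpolation of endpoints. Here, GI50 denotes the concentration required for 50% inhibition of growth.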 The source made the active and inactive calls. Rule as the data show it: active = GI50 up to about 1.1 µM and inactive = higher.

Key:
Assay in all cases: NCI anticancer screen, dose series, 48 h
A498 = test system: A498
A549 = test system: A549
EKVX = test system: EKVX
HCC 2998 = test system: HCC 2998
HOP-92 = test system: HOP-92
HT-29 = test system: HT-29
K562 = test system: K562
KM12 = test system: KM12
NCI-H460 = test system: NCI-H460
OVCAR-4 = test system: OVCAR-4
RPMI-8226 = test system: RPMI-8226
RXF 393 = test system: RXF 393
SK-MEL-2 = test system: SK-MEL-2
UACC-62 = test system: UACC-62
UO-31 = test system: UO-31
SK-MEL-5 = test system: SK-MEL-5
BT-549 = test system: BT-549
DU-145 = test system: DU-145
PC-3 = test system: PC-3
MDA-MB-231 = test system: MDA-MB-231

Measured: GI50

CN1N=C2c3ccccc3CC[C@H]2C1c1ccccc1 (some centres not stated)
inactive: A498 72.1 µM | A549 35.6 µM | EKVX 49.3 µM | HCC 2998 85.7 µM | HOP-92 5.25 µM | HT-29 22.9 µM | K562 > 100 µM | KM12 36.9 µM | NCI-H460 28.9 µM | OVCAR-4 23.1 µM | RPMI-8226 28.6 µM | RXF 393 17 µM | SK-MEL-2 24.5 µM | UACC-62 32.3 µM | UO-31 19.4 µM

COC(=O)C(Cc1nc2ccc(Cl)cc2nc1O)/C(=N/NC(N)=O)C(=O)Nc1ccc(Cl)cc1 (configuration not stated)
inactive: A498 > 100 µM | A549 > 100 µM | EKVX 20.4 µM | HCC 2998 > 100 µM | HOP-92 > 100 µM | HT-29 > 100 µM | K562 > 100 µM | KM12 > 100 µM | NCI-H460 > 100 µM | OVCAR-4 > 100 µM | RPMI-8226 > 100 µM | RXF 393 > 100 µM | SK-MEL-2 > 100 µM | SK-MEL-5 > 100 µM | UACC-62 > 100 µM | UO-31 > 100 µM

CC12CC(c3ccccc3O1)C(C(=O)Nc1cccc(F)c1)C(=O)N2 (configuration not stated)
inactive: A498 > 100 µM | A549 52.1 µM | BT-549 23.5 µM | DU-145 > 100 µM | EKVX 31.6 µM | HCC 2998 > 100 µM | HT-29 55.8 µM | K562 35.4 µM | KM12 49.7 µM | NCI-H460 47.2 µM | OVCAR-4 30.1 µM | PC-3 49.1 µM | RPMI-8226 40.7 µM | SK-MEL-2 > 100 µM | SK-MEL-5 22.8 µM | UACC-62 52.6 µM | UO-31 7.78 µM

CC(C)(CN1CCCCC1)C(=O)/C=C/c1ccc(Cl)c(Cl)c1
active: HOP-92 1.03 µM
inactive: A498 1.67 µM | A549 1.98 µM | EKVX 1.76 µM | HCC 2998 1.74 µM | HT-29 1.61 µM | K562 1.59 µM | KM12 1.71 µM | NCI-H460 1.65 µM | OVCAR-4 1.51 µM | RPMI-8226 2.52 µM | RXF 393 1.17 µM | SK-MEL-2 1.73 µM | SK-MEL-5 2.07 µM | UACC-62 1.76 µM | UO-31 1.63 µM

CSc1nc2c(nc(C)c(=O)n2C2OCC(OC(C)=O)C(OC(C)=O)C2OC(C)=O)c(=O)[nH]1 (configuration not stated)
inactive: A498 > 100 µM | A549 > 100 µM | EKVX > 100 µM | HCC 2998 > 100 µM | HOP-92 3.76 µM | HT-29 > 100 µM | K562 > 100 µM | KM12 > 100 µM | NCI-H460 > 100 µM | OVCAR-4 > 100 µM | RPMI-8226 > 100 µM | RXF 393 > 100 µM | SK-MEL-2 > 100 µM | SK-MEL-5 > 100 µM | UACC-62 > 100 µM | UO-31 > 100 µM

Cc1ccc([N+](=O)[O-])cc1S(=O)(=O)Nc1ccc(C2=NN(S(=O)(=O)c3cc([N+](=O)[O-])ccc3C)C(c3ccco3)C2)cc1 (configuration not stated)
inactive: BT-549 25.8 µM | DU-145 45 µM | EKVX 29.2 µM | HOP-92 16.7 µM | HT-29 54 µM | K562 31 µM | KM12 39.4 µM | OVCAR-4 74.8 µM | PC-3 45.5 µM | RPMI-8226 25.8 µM | RXF 393 26.8 µM | SK-MEL-2 38 µM | SK-MEL-5 30.3 µM | UACC-62 21.8 µM | UO-31 41.1 µM

CCCCCCCCCCCCCCCCCCOP1(=O)OCCO1
inactive: A498 > 100 µM | A549 79.4 µM | DU-145 > 100 µM | EKVX > 100 µM | HCC 2998 47.2 µM | HOP-92 > 100 µM | HT-29 > 100 µM | K562 > 100 µM | KM12 > 100 µM | MDA-MB-231 44.5 µM | OVCAR-4 > 100 µM | PC-3 22.8 µM | RPMI-8226 37.4 µM | RXF 393 16.4 µM | SK-MEL-2 > 100 µM | SK-MEL-5 > 100 µM | UACC-62 > 100 µM | UO-31 > 100 µM

CCOC(=O)[C@H]1C[C@]23CN(C(=O)OC(C)(C)C)CC[C@H]2CCC2(SCCCS2)[C@@H]3N1C
inactive: A498 52.2 µM | A549 37.8 µM | BT-549 50.2 µM | DU-145 54.3 µM | EKVX 27.3 µM | HCC 2998 22.8 µM | HOP-92 14.1 µM | HT-29 22.5 µM | K562 36.6 µM | KM12 33.3 µM | NCI-H460 33.3 µM | OVCAR-4 16 µM | PC-3 25.2 µM | RPMI-8226 20.4 µM | RXF 393 33.8 µM | SK-MEL-2 22.2 µM | SK-MEL-5 18.5 µM | UACC-62 40.5 µM | UO-31 37.8 µM

CN1c2ccccc2N(C)C2C1N(C)c1ccccc1N2C (configuration not stated)
inactive: A498 31.6 µM | A549 26.8 µM | EKVX 61.5 µM | HCC 2998 9.73 µM | HOP-92 10.4 µM | HT-29 7.78 µM | K562 3.42 µM | KM12 16 µM | NCI-H460 20.8 µM | OVCAR-4 26 µM | RPMI-8226 5.11 µM | RXF 393 11.1 µM | SK-MEL-2 9.59 µM | SK-MEL-5 3.72 µM | UACC-62 5.15 µM | UO-31 31.6 µM

CC1(C)C2CCC(=O)C1CC2 (configuration not stated)
inactive: A498 > 100 µM | A549 > 100 µM | DU-145 > 100 µM | HCC 2998 > 100 µM | HT-29 > 100 µM | K562 58.2 µM | KM12 > 100 µM | MDA-MB-231 > 100 µM | NCI-H460 > 100 µM | PC-3 > 100 µM | RPMI-8226 > 100 µM | RXF 393 > 100 µM | SK-MEL-2 > 100 µM | SK-MEL-5 > 100 µM | UACC-62 > 100 µM | UO-31 > 100 µM

O=C1Oc2ccccc2C(=O)/C1=C\Nc1nc(-c2ccccc2)cs1
inactive: A498 27.7 µM | A549 31 µM | DU-145 15.3 µM | EKVX 19.5 µM | HCC 2998 51.4 µM | HOP-92 11.1 µM | HT-29 5.21 µM | K562 7.66 µM | KM12 16.7 µM | MDA-MB-231 18.9 µM | NCI-H460 > 100 µM | OVCAR-4 58.7 µM | PC-3 16.9 µM | RPMI-8226 4.47 µM | RXF 393 12.4 µM | SK-MEL-2 14.3 µM | SK-MEL-5 2.75 µM | UACC-62 5.36 µM | UO-31 7.8 µM

CN(C)[C@@H]1C(O)=C(C(N)=O)C(=O)[C@@]2(O)C(O)=C3C(=O)c4c(O)cccc4C[C@H]3C[C@@H]12
inactive: A498 2.2 µM | A549 2.32 µM | HCC 2998 1.78 µM | HOP-92 2.26 µM | HT-29 1.87 µM | K562 2.51 µM | KM12 2.13 µM | NCI-H460 2.18 µM | OVCAR-4 1.68 µM | RPMI-8226 2.17 µM | RXF 393 1.69 µM | SK-MEL-2 1.83 µM | SK-MEL-5 1.75 µM | UACC-62 1.72 µM | UO-31 1.87 µM

COC(=O)CCC(NC(=S)N/N=C/c1ccccn1)C(=O)OC (configuration not stated)
inactive: A498 > 100 µM | A549 > 100 µM | EKVX > 100 µM | HCC 2998 > 100 µM | HOP-92 84.5 µM | HT-29 > 100 µM | K562 > 100 µM | KM12 > 100 µM | NCI-H460 > 100 µM | OVCAR-4 > 100 µM | RPMI-8226 > 100 µM | RXF 393 > 100 µM | SK-MEL-2 > 100 µM | SK-MEL-5 > 100 µM | UACC-62 > 100 µM | UO-31 > 100 µM

CC1C[C@@H]2C(=O)NC(=O)[C@@H]2c2c1c1ccccc1n2C (some centres not stated)
inactive: A498 > 100 µM | A549 > 100 µM | EKVX > 100 µM | HCC 2998 > 100 µM | HOP-92 > 100 µM | HT-29 > 100 µM | K562 > 100 µM | KM12 > 100 µM | NCI-H460 > 100 µM | RPMI-8226 > 100 µM | RXF 393 > 100 µM | SK-MEL-2 > 100 µM | SK-MEL-5 > 100 µM | UACC-62 > 100 µM | UO-31 > 100 µM

O=C(CC(C(=O)c1cccs1)c1ccsc1)c1ccc(Cl)s1 (configuration not stated)
inactive: A498 > 100 µM | A549 > 100 µM | DU-145 > 100 µM | EKVX 50.7 µM | HCC 2998 > 100 µM | HT-29 75.9 µM | K562 > 100 µM | KM12 > 100 µM | MDA-MB-231 > 100 µM | NCI-H460 > 100 µM | OVCAR-4 > 100 µM | PC-3 > 100 µM | RPMI-8226 55.1 µM | SK-MEL-2 > 100 µM | SK-MEL-5 70.3 µM | UACC-62 99.3 µM | UO-31 36.6 µM

CCN(CC)c1ccc2cc3ccc(N(CC)CC)cc3[o+]c2c1
inactive: A498 14.6 µM | A549 3.14 µM | EKVX 5.5 µM | HCC 2998 4.39 µM | K562 2.82 µM | NCI-H460 1.78 µM | OVCAR-4 11.1 µM | RXF 393 2.36 µM | SK-MEL-2 1.34 µM | SK-MEL-5 2.34 µM | UACC-62 1.71 µM | UO-31 2.28 µM
active: HOP-92 0.693 µM | HT-29 0.474 µM | KM12 0.51 µM | RPMI-8226 0.305 µM
